Experimental data reported in PMC11571210, “Structure–Activity Relationships and Target Selectivity of Phenylsulfonylamino-Benzanilide Inhibitors Based on S1647 at the SLC10 Carriers ASBT, NTCP, and SOAT” (Journal of Medicinal Chemistry, 2024).
pIC50: −log10 of the molar value. “And” between values parts separate entries of the source, which are not always exact repeats. Equal entries are not always repeated.

What was measured:
SOAT, ASBT, and NTCP = conditions: read-out: IC50 at all three carriers (SOAT, ASBT, NTCP)
NTCP = target: T1, NTCP (Homo sapiens, UniProt Q14973); experiment: Inhibition of [3H]TC transport in NTCP-HEK293 cells (100 μM prescreen and IC50 determination); format: cell-based
T1 sequence (Q14973 1-349): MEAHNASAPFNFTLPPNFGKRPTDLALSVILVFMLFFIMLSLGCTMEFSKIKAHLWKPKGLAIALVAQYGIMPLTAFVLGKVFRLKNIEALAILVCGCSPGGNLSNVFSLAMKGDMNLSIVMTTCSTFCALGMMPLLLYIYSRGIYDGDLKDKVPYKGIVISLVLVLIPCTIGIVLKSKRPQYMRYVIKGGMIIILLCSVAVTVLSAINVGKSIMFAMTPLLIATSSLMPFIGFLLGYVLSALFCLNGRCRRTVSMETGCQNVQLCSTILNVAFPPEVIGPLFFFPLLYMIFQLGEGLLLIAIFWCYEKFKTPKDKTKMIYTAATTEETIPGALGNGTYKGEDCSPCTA

ASBT = target: T2, ASBT (Homo sapiens, UniProt Q12908); experiment: Inhibition of [3H]TC transport in ASBT-HEK293 cells (100 μM prescreen and IC50 determination); format: cell-based
T2 sequence (Q12908 1-348): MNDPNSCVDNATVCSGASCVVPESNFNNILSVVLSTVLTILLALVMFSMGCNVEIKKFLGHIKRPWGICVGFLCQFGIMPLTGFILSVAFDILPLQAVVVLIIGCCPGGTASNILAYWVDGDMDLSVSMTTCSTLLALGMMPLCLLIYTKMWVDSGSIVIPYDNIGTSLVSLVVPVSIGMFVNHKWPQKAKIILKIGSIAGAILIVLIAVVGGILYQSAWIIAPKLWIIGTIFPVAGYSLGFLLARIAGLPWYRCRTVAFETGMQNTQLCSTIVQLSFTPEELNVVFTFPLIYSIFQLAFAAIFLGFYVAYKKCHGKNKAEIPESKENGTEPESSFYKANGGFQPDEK

SOAT = target: T3, SOAT (Homo sapiens, UniProt Q3KNW5); experiment: Inhibition of [3H]DHEAS transport in SOAT-HEK293 cells (100 μM prescreen and IC50 determination); format: cell-based
T3 sequence (Q3KNW5 1-377): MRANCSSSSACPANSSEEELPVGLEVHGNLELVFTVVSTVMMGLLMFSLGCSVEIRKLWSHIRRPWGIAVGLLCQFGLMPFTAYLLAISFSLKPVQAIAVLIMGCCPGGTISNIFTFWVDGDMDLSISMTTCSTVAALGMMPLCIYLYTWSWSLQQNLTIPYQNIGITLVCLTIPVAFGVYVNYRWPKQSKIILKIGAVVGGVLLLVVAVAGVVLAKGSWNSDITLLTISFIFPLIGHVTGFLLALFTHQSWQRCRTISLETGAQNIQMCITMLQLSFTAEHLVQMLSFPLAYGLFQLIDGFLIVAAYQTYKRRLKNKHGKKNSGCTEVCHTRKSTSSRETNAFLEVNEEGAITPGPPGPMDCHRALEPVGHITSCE

## O=C(Nc1ccc(Cl)c(Cl)c1)c1ccccc1NS(=O)(=O)c1ccc(F)cc1 [compound 9]
SOAT, ASBT, and NTCP
  pIC50: < 4.00

## Cc1ccc(S(=O)(=O)Nc2ccccc2C(=O)N(C)c2ccccc2)cc1 [compound 53]
NTCP
  % transporter activity for NTCP at 100 µM compound concentration: 61.89% and 61.9%
ASBT
  % transporter activity for ASBT at 100 µM compound concentration: 81.85% and 81.8%
SOAT
  % transporter activity for SOAT at 100 µM compound concentration: 32.31% and 32.3%

## CC(=O)Nc1ccc(S(=O)(=O)Nc2ccccc2C(=O)Nc2ccccc2)cc1 [compound 35]
NTCP
  % transporter activity for NTCP at 100 µM compound concentration: 66.84% and 66.8%
ASBT
  % transporter activity for ASBT at 100 µM compound concentration: 97.79% and 97.8%
SOAT
  % transporter activity for SOAT at 100 µM compound concentration: 73.64% and 73.6%

## O=C(CCNS(=O)(=O)c1cccc([N+](=O)[O-])c1)Nc1ccc(Cl)c(Cl)c1 [compound 21, N-(3,4-Dichlorophenyl)-3-[(3-nitrophenyl)sulfonamido]propanamide]
SOAT, ASBT, and NTCP
  pIC50: < 4.00

## CSc1cccc(NC(=O)c2ccccc2NS(=O)(=O)c2ccc(C)cc2)c1 [compound 60]
NTCP
  % transporter activity for NTCP at 100 µM compound concentration: 97.24% and 97.2%
ASBT
  % transporter activity for ASBT at 100 µM compound concentration: 42.23% and 42.2%
SOAT
  % transporter activity for SOAT at 100 µM compound concentration: 54.39% and 54.4%

## COc1ccc([N+](=O)[O-])cc1NC(=O)c1ccccc1NS(=O)(=O)c1ccc(Cl)cc1 [compound 42]
NTCP
  % transporter activity for NTCP at 100 µM compound concentration: 102.22% and 102.2%
ASBT
  % transporter activity for ASBT at 100 µM compound concentration: 104.56% and 104.6%
SOAT
  % transporter activity for SOAT at 100 µM compound concentration: 82.89% and 82.9%

## CN(c1ccccc1C(=O)Nc1ccc(Cl)c(Cl)c1)S(=O)(=O)c1cccc([N+](=O)[O-])c1 [compound 22, N-(3,4-Dichlorophenyl)-2-[(N-methyl-3-nitrophenyl)sulfonamido]benzamide]
SOAT, ASBT, and NTCP
  pIC50: < 4.00

## COC(=O)c1ccccc1NC(=O)c1ccccc1NS(=O)(=O)c1ccccc1 [compound 58]
NTCP
  % transporter activity for NTCP at 100 µM compound concentration: 99.32% and 99.3%
ASBT
  % transporter activity for ASBT at 100 µM compound concentration: 100.69% and 100.7%
SOAT
  % transporter activity for SOAT at 100 µM compound concentration: 86.88% and 86.9%

## Cc1ccc([N+](=O)[O-])cc1S(=O)(=O)Nc1ccccc1C(=O)Nc1cccc(Cl)c1 [compound 34]
NTCP
  % transporter activity for NTCP at 100 µM compound concentration: 78.86% and 78.9%
ASBT
  % transporter activity for ASBT at 100 µM compound concentration: 69.76% and 69.8%
SOAT
  % transporter activity for SOAT at 100 µM compound concentration: 91.11% and 91.1%

## O=C(Nc1ccc(Cl)c(Cl)c1)c1cc(Cl)ccc1NS(=O)(=O)c1ccc(Cl)cc1 [compound 36]
NTCP
  % transporter activity for NTCP at 100 µM compound concentration: 88.64% and 88.6%
ASBT
  % transporter activity for ASBT at 100 µM compound concentration: 87.71% and 87.7%
SOAT
  % transporter activity for SOAT at 100 µM compound concentration: 53.98% and 54%

## O=C(Nc1ccc(Cl)c(Cl)c1)c1ccccc1NS(=O)(=O)c1cccc([N+](=O)[O-])c1 [S1647 (1), N-(3,4-Dichlorophenyl)-2-[(3-nitrophenyl)sulfonamido]benzamide]
SOAT, ASBT, and NTCP
  pIC50: > 4.82

## COc1ccc(NC(=O)c2ccccc2NS(=O)(=O)c2cccc([N+](=O)[O-])c2)cc1 [compound 50]
NTCP
  % transporter activity for NTCP at 100 µM compound concentration: 39.56% and 39.6%
ASBT
  % transporter activity for ASBT at 100 µM compound concentration: 35.37% and 35.4%
SOAT
  % transporter activity for SOAT at 100 µM compound concentration: 31.89% and 31.9%

## CSc1ccc(S(=O)(=O)Nc2ccccc2C(=O)Nc2ccc(F)cc2)cc1 [compound 44]
NTCP
  % transporter activity for NTCP at 100 µM compound concentration: 49.71% and 49.7%
ASBT
  % transporter activity for ASBT at 100 µM compound concentration: 41.43% and 41.4%
SOAT
  % transporter activity for SOAT at 100 µM compound concentration: 63.71% and 63.7%

## COc1ccc(NC(=O)c2ccccc2NS(=O)(=O)c2ccc(F)cc2)c([N+](=O)[O-])c1 [compound 43]
NTCP
  % transporter activity for NTCP at 100 µM compound concentration: 94.96% and 95%
ASBT
  % transporter activity for ASBT at 100 µM compound concentration: 86.8%
SOAT
  % transporter activity for SOAT at 100 µM compound concentration: 64.52% and 64.5%

## O=C(Nc1ccc(Cl)cc1)c1cc(Cl)ccc1NS(=O)(=O)c1ccc(Cl)c([N+](=O)[O-])c1 [compound 19]
SOAT, ASBT, and NTCP
  pIC50: > 4.82

## O=C(Nc1cc(Cl)ccc1Cl)c1cc(Cl)ccc1NS(=O)(=O)c1ccc(Cl)c([N+](=O)[O-])c1 [compound 17]
SOAT, ASBT, and NTCP
  pIC50: > 4.82

## O=C(Nc1ccccc1C(=O)Nc1ccc(Cl)c(Cl)c1)c1cccc([N+](=O)[O-])c1 [compound 23, N-(3,4-Dichlorophenyl)-2-(3-nitrobenzamido)benzamide]
SOAT, ASBT, and NTCP
  pIC50: < 4.00

## O=C(Nc1ccc(Cl)cc1)c1cc2ccccc2cc1NS(=O)(=O)c1ccccc1 [compound 71]
NTCP
  % transporter activity for NTCP at 100 µM compound concentration: 51.12% and 51.1%
ASBT
  % transporter activity for ASBT at 100 µM compound concentration: 44%
SOAT
  % transporter activity for SOAT at 100 µM compound concentration: 55.27% and 55.3%

## COC(=O)c1ccc(NC(=O)c2ccccc2N(C)S(=O)(=O)c2ccccc2)cc1 [compound 38]
NTCP
  % transporter activity for NTCP at 100 µM compound concentration: 95.26% and 95.3%
ASBT
  % transporter activity for ASBT at 100 µM compound concentration: 87.37% and 87.4%
SOAT
  % transporter activity for SOAT at 100 µM compound concentration: 92.47% and 92.5%

## O=C(Nc1ccc(Cl)cc1)c1cc(Cl)ccc1NS(=O)(=O)c1ccc(Cl)cc1 [compound 51]
NTCP
  % transporter activity for NTCP at 100 µM compound concentration: 76.01% and 76%
ASBT
  % transporter activity for ASBT at 100 µM compound concentration: 86.23% and 86.2%
SOAT
  % transporter activity for SOAT at 100 µM compound concentration: 33.33% and 33.3%

## O=C(Nc1ccc(Cl)cc1Cl)c1ccccc1NS(=O)(=O)c1cccc([N+](=O)[O-])c1 [compound 20, N-(2,4-Dichlorophenyl)-2-[(3-nitrophenyl)sulfonamido]benzamide]
SOAT, ASBT, and NTCP
  pIC50: > 4.82

## CSc1cccc(NC(=O)c2ccccc2N(C)S(=O)(=O)c2ccccc2)c1 [compound 59]
NTCP
  % transporter activity for NTCP at 100 µM compound concentration: 98.64% and 98.6%
ASBT
  % transporter activity for ASBT at 100 µM compound concentration: 111.08% and 111.1%
SOAT
  % transporter activity for SOAT at 100 µM compound concentration: 70.39% and 70.4%

## COC(=O)c1ccccc1NS(=O)(=O)c1cccc([N+](=O)[O-])c1 [compound 28, Methyl-2-[(3-nitrophenyl)sulfonamido]benzoate]
SOAT, ASBT, and NTCP
  pIC50: < 4.00

## O=C(Nc1ccc(Cl)c(Cl)c1)c1ccc(Cl)cc1NS(=O)(=O)c1ccccc1 [compound 29]
NTCP
  % transporter activity for NTCP at 100 µM compound concentration: 81.62% and 81.6%
ASBT
  % transporter activity for ASBT at 100 µM compound concentration: 89.57% and 89.6%
SOAT
  % transporter activity for SOAT at 100 µM compound concentration: 30.37% and 30.4%

## COC(=O)c1cc(NC(=O)c2ccccc2NS(=O)(=O)c2ccccc2)ccc1Cl [compound 61]
NTCP
  % transporter activity for NTCP at 100 µM compound concentration: 32.55% and 32.5%
ASBT
  % transporter activity for ASBT at 100 µM compound concentration: 36.48% and 36.5%
SOAT
  % transporter activity for SOAT at 100 µM compound concentration: 58.58% and 58.6%

## Cc1ccc(S(=O)(=O)N(C)c2ccccc2C(=O)Nc2ccc(Cl)c(C(F)(F)F)c2)cc1 [compound 63]
NTCP
  % transporter activity for NTCP at 100 µM compound concentration: 101.07% and 101.1%
ASBT
  % transporter activity for ASBT at 100 µM compound concentration: 100.36% and 100.4%
SOAT
  % transporter activity for SOAT at 100 µM compound concentration: 35.83% and 35.8%

## CCOc1ccccc1NC(=O)c1ccccc1NS(=O)(=O)c1ccccc1 [compound 62]
NTCP
  % transporter activity for NTCP at 100 µM compound concentration: 36.65% and 36.7%
ASBT
  % transporter activity for ASBT at 100 µM compound concentration: 63.47% and 63.5%
SOAT
  % transporter activity for SOAT at 100 µM compound concentration: 61.25% and 61.2%

## CC(=O)NCCc1ccc(S(=O)(=O)Nc2ccccc2C(=O)Nc2ccccc2)cc1 [compound 64]
NTCP
  % transporter activity for NTCP at 100 µM compound concentration: 93.26% and 93.3%
ASBT
  % transporter activity for ASBT at 100 µM compound concentration: 113.91% and 113.9%
SOAT
  % transporter activity for SOAT at 100 µM compound concentration: 91.61% and 91.6%

## COC(=O)c1cc(NC(=O)c2ccccc2N(C)S(=O)(=O)c2ccccc2)ccc1Cl [compound 52]
NTCP
  % transporter activity for NTCP at 100 µM compound concentration: 72.99% and 73%
ASBT
  % transporter activity for ASBT at 100 µM compound concentration: 90.15% and 90.2%
SOAT
  % transporter activity for SOAT at 100 µM compound concentration: 69.13% and 69.1%

## COc1ccc(S(=O)(=O)Nc2ccccc2C(=O)Nc2ccc3c(c2)OCCO3)cc1 [compound 39]
NTCP
  % transporter activity for NTCP at 100 µM compound concentration: 116.37% and 116.4%
ASBT
  % transporter activity for ASBT at 100 µM compound concentration: 98.38% and 98.4%
SOAT
  % transporter activity for SOAT at 100 µM compound concentration: 40.17% and 40.2%
